Reference: patent US20240109900A1, “AZABICYCLIC SHP2 INHIBITORS” (IRBM S.P.A., priority 2021, published 2024)

Tests used:
[1] = system: ERK phosphorylation in KYSE-520 cells; assay: Phospho-ERK cellular assay; assay type: cell-based; details: Homo sapiens, KYSE-520, 2 h, KYSE-520 cells, 2 h at 37° C., phospho-ERK1/2 (Thr202/Tyr204) TR-FRET; read-out: PERK IC50
Description: ERK phosphorylation was detected using the “Advanced phospho-ERK1/2 (Thr202/Tyr204)” TR-FRET kit (Cisbio, Cat #64AERPEG/H), following the manufacturer reagents and instructions.
Briefly, 20.000/well KYSE-520 cells (DSMZ ACC 371) were plated in 6 μL RPMI-1640 (Invitrogen) growth medium, into 384 white low-volume high base TC microplates (Greiner). After an overnight incubation, cells were treated with DMSO serial diluted compounds and incubated for 2 h at 37° C. After incubation, 2 μL/well of 4×Lysis Buffer (Cisbio 64KL1FDF), were added and incubated with cells for 30 min on gentle shaking. Finally, lysates were added with 2 μL/well of Eu cryptate (donor) and D2 (acceptor) conjugated antibodies (as provided by the Cisbio kit #64AERPEG/H) diluted 1:100 in Detection Buffer (as provided by the Cisbio kit #64AERPEG/H). Plates were then sealed and incubated at room temperature in the dark. After an overnight incubation, the TR-FRET signal was detected on a suitable reader (Envision, PerkinElmer). The lower the TR-FRET signal the higher the higher the SHP2 inhibition in cells.
The activity of each compound dilution was calculated as percentage between vehicle DMSO treated cells and no cells, 0% inhibition and 100% inhibition respectively. The percentage activity is fitted against the compound dilutions with a four-parameter logistic regression. The inflection point (i.e. the concentration at which half-maximal inhibition is achieved) is the IC50.

[2] = target: SHP-2 enzyme (Met1-Leu525) (Homo sapiens (Human), UniProt Q06124); assay: SHP2 inhibition enzymatic assay; assay type: biochemical; details: 0.5 nM SHP-2 activated by 500 nM IRS1 peptide, 75 μM DiFMUP substrate; read-out: SHP2wt-IC50
Description: The assay was performed as described in YP Chen et al, Nature (535)2016. Assay volume of 20 μL/well was assembled in 384 well black polystyrene low-binding microplates (Greiner), using the following buffer: 60 mM HEPES pH 7.2, 75 mM NaCl, 75 mM KCl, 1 mM EDTA pH 8, 0.05% tween-20, 5 mM DTT. The SHP-2 enzyme (synthetized by Origene, Met1-Leu525, cat #TP750155) was used at a final concentration of 0.5 nM. The enzyme was activated by 500 nM IRS1 peptide (sequence: H2N-LN(pY)IDLDLV(dPEG8)LST(pY)ASINFQK-amide SEQ ID No. 1) and incubated with 75 μM DiFMUP (Sigma) as substrate.
Briefly, DMSO serially diluted testing compounds were transferred to the bottom of the assay plate. SHP2 was then added together with the IRS1 peptide. 30 min post incubation, the DiFMUP substrate was added to the reaction and incubated 30 min at room temperature. Finally 5 μL of 160 μM bpV (Potassium bisperoxo[1,10-phenanthroline]oxovanadate [V], Sigma) were added to stop and quench the reaction. The fluorescence was detected by a microplate reader (Envision, PerkinElmer) according to the DiFMUP excitation and emission wavelength. The lower the fluorescence the higher the SHP2 inhibition. […] The percentage inhibition is fitted against the compound dilutions with a four-parameter logistic regression. The inflection point (i.e. the concentration at which half-maximal inhibition is achieved) is the IC50.

Sequence of SHP-2 enzyme (Met1-Leu525) (Q06124 1-525): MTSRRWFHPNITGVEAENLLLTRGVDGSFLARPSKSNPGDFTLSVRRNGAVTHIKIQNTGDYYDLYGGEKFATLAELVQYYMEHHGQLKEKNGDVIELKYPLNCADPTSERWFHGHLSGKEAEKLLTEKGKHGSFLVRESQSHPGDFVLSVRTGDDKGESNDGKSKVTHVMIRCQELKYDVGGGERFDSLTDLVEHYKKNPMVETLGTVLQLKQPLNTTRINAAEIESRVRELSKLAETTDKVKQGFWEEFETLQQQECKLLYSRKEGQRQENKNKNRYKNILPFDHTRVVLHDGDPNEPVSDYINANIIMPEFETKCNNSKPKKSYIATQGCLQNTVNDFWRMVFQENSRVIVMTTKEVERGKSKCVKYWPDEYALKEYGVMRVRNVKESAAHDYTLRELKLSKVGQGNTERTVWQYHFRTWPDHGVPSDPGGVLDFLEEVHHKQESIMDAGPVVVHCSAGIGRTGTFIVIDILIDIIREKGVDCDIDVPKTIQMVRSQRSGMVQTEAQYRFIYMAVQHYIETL

Row | SMILES | IC50 [1] | IC50 [2]
1 | COc1ncccc1-c1n[nH]c2nc(N3CCC4C(C3)C4(CN)c3cc(C)on3)cnc12 (stereo not drawn) [Example 28, (3-(3-(2-methoxypyridin-3-yl)-1H-pyrazolo[3,4-b]pyrazin-6-yl)-7-(5-methylisoxazol-3-yl)-3-azabicyclo[4.1.0]heptan-7-yl)methanamine] | > 5000 nM | < 500 nM
2 | Cc1cc(C2(CN)C3CCN(c4cnc5c(-c6ccnc7c6OC[C@@H]6CCCN76)n[nH]c5n4)CC32)no1 (stereo partly drawn) [Example 29, (7-(5-methylisoxazol-3-yl)-3-(3-((S)-6a,7,8,9-tetrahydro-6H-pyrido[3,2-b]pyrrolo[1,2-d][1,4]oxazin-4-yl)-1H-pyrazolo[3,4-b]pyrazin-6-yl)-3-azabicyclo[4.1.0]heptan-7-yl)methanamine] | > 5000 nM | 500 to 3000 nM
3 | Cc1cc(C2(CN)C3CCN(c4cnc5c(-c6ccnc(Cl)c6Cl)n[nH]c5n4)CC32)no1 (stereo not drawn) [Example 31, (3-(3-(2,3-dichloropyridin-4-yl)-1H-pyrazolo[3,4-b]pyrazin-6-yl)-7-(5-methylisoxazol-3-yl)-3-azabicyclo[4.1.0]heptan-7-yl)methanamine] | < 1000 nM | < 500 nM
4 | Cc1cc(C2(CN)C3CCN(c4cnc5c(-c6ccc(C#N)c7ncccc67)n[nH]c5n4)CC32)no1 (stereo not drawn) [Example 32, 5-(6-(7-(aminomethyl)-7-(5-methylisoxazol-3-yl)-3-azabicyclo[4.1.0]heptan-3-yl)-1H-pyrazolo[3,4-b]pyrazin-3-yl)quinoline-8-carbonitrile] | < 1000 nM | < 500 nM
5 | Cc1cc([C@@]2(CN)[C@@H]3CCN(c4cnc5c(-c6ccc7c(c6)OC(F)(F)O7)n[nH]c5n4)C[C@@H]32)no1 [Example 37, ((1S,6R,7S)-3-(3-(2,2-difluorobenzo[d][1,3]dioxol-5-yl)-1H-pyrazolo[3,4-b]pyrazin-6-yl)-7-(5-methylisoxazol-3-yl)-3-azabicyclo[4.1.0]heptan-7-yl)methanamine] | 1000 to 5000 nM | < 500 nM
6 | Cc1cc([C@@]2(CN)[C@@H]3CCN(c4cnc5c(-c6cccc7c6OCCO7)n[nH]c5n4)C[C@@H]32)no1 [Example 40, ((1S,6R,7S)-3-(3-(2,3-dihydrobenzo[b][1,4]dioxin-5-yl)-1H-pyrazolo[3,4-b]pyrazin-6-yl)-7-(5-methylisoxazol-3-yl)-3-azabicyclo[4.1.0]heptan-7-yl)methanamine] | < 1000 nM | < 500 nM
7 | Cc1cc([C@@]2(CN)[C@@H]3CCN(c4cnc5c(-c6ccc(C(F)(F)F)c7ncccc67)n[nH]c5n4)C[C@@H]32)no1 [Example 43, ((1S,6R,7S)-7-(5-methylisoxazol-3-yl)-3-(3-(8-(trifluoromethyl)quinolin-5-yl)-1H-pyrazolo[3,4-b]pyrazin-6-yl)-3-azabicyclo[4.1.0]heptan-7-yl)methanamine] | < 1000 nM | < 500 nM
8 | Cc1cc([C@@]2(CN)[C@@H]3CCN(c4cnc5c(-c6ccc7nn(C)c(Cl)c7c6Cl)n[nH]c5n4)C[C@@H]32)no1 [Example 44, ((1S,6R,7S)-3-(3-(3,4-dichloro-2-methyl-2H-indazol-5-yl)-1H-pyrazolo[3,4-b]pyrazin-6-yl)-7-(5-methylisoxazol-3-yl)-3-azabicyclo[4.1.0]heptan-7-yl)methanamine] | < 1000 nM | < 500 nM

Next, values leading:

Row | IC50 [1] | IC50 [2] | SMILES
9 | < 1000 nM | < 500 nM | Cc1cc(C2(CN)C3CCN(c4cnc5c(-c6ccnc7ccccc67)n[nH]c5n4)CC32)no1 (stereo not drawn) [Example 27, (7-(5-methylisoxazol-3-yl)-3-(3-(quinolin-4-yl)-1H-pyrazolo[3,4-b]pyrazin-6-yl)-3-azabicyclo[4.1.0]heptan-7-yl)methanamine]
10 | < 1000 nM | < 500 nM | Cc1cc(C2(CN)C3CCN(c4cnc5c(-c6ccc(F)c7ncccc67)n[nH]c5n4)CC32)no1 (stereo not drawn) [Example 30, (3-(3-(8-fluoroquinolin-5-yl)-1H-pyrazolo[3,4-b]pyrazin-6-yl)-7-(5-methylisoxazol-3-yl)-3-azabicyclo[4.1.0]heptan-7-yl)methanamine]
11 | < 1000 nM | < 500 nM | Cc1cc(C2(CN)C3CCN(c4cnc5c(-c6ccc(Cl)c7ncccc67)n[nH]c5n4)CC32)no1 (stereo not drawn) [Example 33, (3-(3-(8-chloroquinolin-5-yl)-1H-pyrazolo[3,4-b]pyrazin-6-yl)-7-(5-methylisoxazol-3-yl)-3-azabicyclo[4.1.0]heptan-7-yl)methanamine]
12 | < 1000 nM | < 500 nM | Cc1cc(C2(CN)C3CCN(c4cnc5c(-c6ccc(Cl)c7cnccc67)n[nH]c5n4)CC32)no1 (stereo not drawn) [Example 34, (3-(3-(8-chloroisoquinolin-5-yl)-1H-pyrazolo[3,4-b]pyrazin-6-yl)-7-(5-methylisoxazol-3-yl)-3-azabicyclo[4.1.0]heptan-7-yl)methanamine]
13 | 1000 to 5000 nM | 500 to 3000 nM | Cc1cc(C2(CN)C3CCN(c4cnc5c(-c6ccnc7cccnc67)n[nH]c5n4)CC32)no1 (stereo not drawn) [Example 35, (3-(3-(1,5-naphthyridin-4-yl)-1H-pyrazolo[3,4-b]pyrazin-6-yl)-7-(5-methylisoxazol-3-yl)-3-azabicyclo[4.1.0]heptan-7-yl)methanamine]
14 | < 1000 nM | < 500 nM | Cc1cc(C2(CN)C3CCN(c4cnc5c(-c6ccnc(N)c6Cl)n[nH]c5n4)CC32)no1 (stereo not drawn) [Example 36, 4-(6-(7-(aminomethyl)-7-(5-methylisoxazol-3-yl)-3-azabicyclo[4.1.0]heptan-3-yl)-1H-pyrazolo[3,4-b]pyrazin-3-yl)-3-chloropyridin-2-amine]
15 | < 1000 nM | < 500 nM | Cc1cc([C@@]2(CN)[C@@H]3CCN(c4cnc5c(-c6ccnc7ncccc67)n[nH]c5n4)C[C@@H]32)no1 [Example 38, ((1S,6R,7S)-3-(3-(1,8-naphthyridin-4-yl)-1H-pyrazolo[3,4-b]pyrazin-6-yl)-7-(5-methylisoxazol-3-yl)-3-azabicyclo[4.1.0]heptan-7-yl)methanamine]
16 | < 1000 nM | < 500 nM | Cc1cc([C@@]2(CN)[C@@H]3CCN(c4cnc5c(-c6ccnc7ccc(F)cc67)n[nH]c5n4)C[C@@H]32)no1 [Example 39, ((1S,6R,7S)-3-(3-(6-fluoroquinolin-4-yl)-1H-pyrazolo[3,4-b]pyrazin-6-yl)-7-(5-methylisoxazol-3-yl)-3-azabicyclo[4.1.0]heptan-7-yl)methanamine]
17 | < 1000 nM | < 500 nM | Cc1cc([C@@]2(CN)[C@@H]3CCN(c4cnc5c(-c6ccnc7cccc(F)c67)n[nH]c5n4)C[C@@H]32)no1 [Example 41, ((1S,6R,7S)-3-(3-(5-fluoroquinolin-4-yl)-1H-pyrazolo[3,4-b]pyrazin-6-yl)-7-(5-methylisoxazol-3-yl)-3-azabicyclo[4.1.0]heptan-7-yl)methanamine]
18 | 1000 to 5000 nM | 500 to 3000 nM | Cc1cc([C@@]2(CN)[C@@H]3CCN(c4cnc5c(-c6ccnc7ccc(Cl)cc67)n[nH]c5n4)C[C@@H]32)no1 [Example 42, ((1S,6R,7S)-3-(3-(6-chloroquinolin-4-yl)-1H-pyrazolo[3,4-b]pyrazin-6-yl)-7-(5-methylisoxazol-3-yl)-3-azabicyclo[4.1.0]heptan-7-yl)methanamine]
